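In this assay, cells in 96-well plates receive the compound at five concentrations for 48 hours. Endpoints are linearly interpolated between the surrounding concentrations. GI50 is the concentration that inhibits growth by half.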 The source made the active and inactive calls. Rule as the data show it: active = GI50 up to about 1.1 µM and inactive = higher.
Assays:
Assay in all cases: growth of human tumour cells (NCI), 48 h
786-0 = test system: 786-0
A498 = test system: A498
A549 = test system: A549
ACHN = test system: ACHN
BT-549 = test system: BT-549
CAKI-1 = test system: CAKI-1
CCRF-CEM = test system: CCRF-CEM
COLO 205 = test system: COLO 205
DU-145 = test system: DU-145
EKVX = test system: EKVX
HCT-116 = test system: HCT-116
HCT-15 = test system: HCT-15
HL-60 = test system: HL-60
HOP-62 = test system: HOP-62
HOP-92 = test system: HOP-92
HT-29 = test system: HT-29
Hs-578T = test system: Hs-578T
IGROV-1 = test system: IGROV-1
K562 = test system: K562
KM12 = test system: KM12
LOX IMVI = test system: LOX IMVI
M14 = test system: M14
MCF7 = test system: MCF7
MDA-MB-231 = test system: MDA-MB-231
MDA-MB-435 = test system: MDA-MB-435
MDA-N = test system: MDA-N
MOLT-4 = test system: MOLT-4
Malme-3M = test system: Malme-3M
NCI-H226 = test system: NCI-H226
NCI-H23 = test system: NCI-H23
NCI-H460 = test system: NCI-H460
NCI-H522 = test system: NCI-H522
NCI/ADR-RES = test system: NCI/ADR-RES
OVCAR-3 = test system: OVCAR-3
OVCAR-4 = test system: OVCAR-4
OVCAR-5 = test system: OVCAR-5
OVCAR-8 = test system: OVCAR-8
PC-3 = test system: PC-3
RPMI-8226 = test system: RPMI-8226
RXF 393 = test system: RXF 393
SF-268 = test system: SF-268
SF-295 = test system: SF-295
SF-539 = test system: SF-539
SK-MEL-28 = test system: SK-MEL-28
SK-MEL-2 = test system: SK-MEL-2
SK-MEL-5 = test system: SK-MEL-5
SK-OV-3 = test system: SK-OV-3
SN12C = test system: SN12C
SNB-19 = test system: SNB-19
SNB-75 = test system: SNB-75
SR = test system: SR
SW-620 = test system: SW-620
T47D = test system: T47D
TK-10 = test system: TK-10
U-251 = test system: U-251
UACC-257 = test system: UACC-257
UACC-62 = test system: UACC-62
UO-31 = test system: UO-31
HCC 2998 = test system: HCC 2998

Measured: GI50

Nc1nc(Cl)cc(NCC2(CO)CCC(O)C2)n1 (stereo not drawn)
> 100 µM: HCT-15
inactive: 786-0 > 100 µM | A498 > 100 µM | A549 > 100 µM | ACHN > 100 µM | BT-549 > 100 µM | CAKI-1 > 100 µM | CCRF-CEM > 100 µM | COLO 205 > 100 µM | DU-145 > 100 µM | EKVX > 100 µM | HCT-116 > 100 µM | HL-60 > 100 µM | HOP-62 > 100 µM | HOP-92 > 100 µM | HT-29 > 100 µM | Hs-578T > 100 µM | IGROV-1 > 100 µM | K562 > 100 µM | KM12 > 100 µM | LOX IMVI > 100 µM | M14 > 100 µM | MCF7 > 100 µM | MDA-MB-231 > 100 µM | MDA-MB-435 > 100 µM | MDA-N > 100 µM | MOLT-4 > 100 µM | Malme-3M > 100 µM | NCI-H226 > 100 µM | NCI-H23 > 100 µM | NCI-H460 > 100 µM | NCI-H522 > 100 µM | NCI/ADR-RES > 100 µM | OVCAR-3 > 100 µM | OVCAR-4 > 100 µM | OVCAR-5 > 100 µM | OVCAR-8 > 100 µM | PC-3 > 100 µM | RPMI-8226 > 100 µM | RXF 393 > 100 µM | SF-268 > 100 µM | SF-295 > 100 µM | SF-539 > 100 µM | SK-MEL-28 > 100 µM | SK-MEL-2 > 100 µM | SK-MEL-5 > 100 µM | SK-OV-3 > 100 µM | SN12C > 100 µM | SNB-19 > 100 µM | SNB-75 > 100 µM | SR > 100 µM | SW-620 > 100 µM | T47D > 100 µM | TK-10 > 100 µM | U-251 > 100 µM | UACC-257 > 100 µM | UACC-62 > 100 µM | UO-31 > 100 µM

COC(=O)[C@]12CCC(=O)N1[C@H](C(=O)O)Cc1c2[nH]c2ccccc12
> 100 µM: HCT-15
inactive: 786-0 > 100 µM | A498 > 100 µM | A549 > 100 µM | ACHN > 100 µM | BT-549 > 100 µM | CAKI-1 > 100 µM | CCRF-CEM > 100 µM | COLO 205 > 100 µM | DU-145 > 100 µM | EKVX > 100 µM | HCC 2998 > 100 µM | HCT-116 > 100 µM | HOP-62 > 100 µM | HOP-92 > 100 µM | HT-29 > 100 µM | Hs-578T > 100 µM | IGROV-1 > 100 µM | K562 > 100 µM | KM12 > 100 µM | LOX IMVI > 100 µM | M14 > 100 µM | MCF7 > 100 µM | MDA-MB-231 > 100 µM | MDA-MB-435 > 100 µM | MDA-N > 100 µM | MOLT-4 > 100 µM | Malme-3M > 100 µM | NCI-H23 > 100 µM | NCI-H460 > 100 µM | NCI-H522 > 100 µM | NCI/ADR-RES > 100 µM | OVCAR-3 > 100 µM | OVCAR-4 > 100 µM | OVCAR-5 > 100 µM | OVCAR-8 > 100 µM | PC-3 > 100 µM | RXF 393 > 100 µM | SF-268 > 100 µM | SF-295 > 100 µM | SF-539 > 100 µM | SK-MEL-28 > 100 µM | SK-MEL-2 > 100 µM | SK-MEL-5 > 100 µM | SK-OV-3 > 100 µM | SN12C > 100 µM | SNB-19 > 100 µM | SNB-75 > 100 µM | SR > 100 µM | SW-620 > 100 µM | T47D > 100 µM | TK-10 > 100 µM | U-251 > 100 µM | UACC-257 > 100 µM | UACC-62 > 100 µM | UO-31 > 100 µM

CC(Br)C(=O)Nc1ccc(C(=O)O)c(O)c1 (stereo not drawn)
inactive: 786-0 37.6 µM | A498 > 100 µM | A549 > 100 µM | ACHN > 100 µM | BT-549 37.2 µM | CAKI-1 > 100 µM | CCRF-CEM 15.8 µM | COLO 205 > 100 µM | DU-145 > 100 µM | EKVX > 100 µM | HCT-116 50.7 µM | HL-60 26.6 µM | HOP-62 34.8 µM | HOP-92 65.6 µM | HT-29 62.4 µM | Hs-578T 33.4 µM | IGROV-1 > 100 µM | K562 49.8 µM | KM12 70.8 µM | LOX IMVI 34.5 µM | M14 33.4 µM | MCF7 83.4 µM | MDA-MB-231 68.2 µM | MDA-MB-435 34.4 µM | MDA-N 34.6 µM | MOLT-4 36.1 µM | Malme-3M 20.7 µM | NCI-H226 93.5 µM | NCI-H23 27.4 µM | NCI-H460 > 100 µM | NCI-H522 20 µM | NCI/ADR-RES 49.5 µM | OVCAR-3 29.2 µM | OVCAR-4 45.4 µM | OVCAR-5 > 100 µM | OVCAR-8 52.8 µM | PC-3 34 µM | RPMI-8226 > 100 µM | RXF 393 53.6 µM | SF-268 36.3 µM | SF-295 > 100 µM | SF-539 38.6 µM | SK-MEL-28 47.4 µM | SK-MEL-2 32.4 µM | SK-MEL-5 62.5 µM | SK-OV-3 38.5 µM | SN12C 24.7 µM | SNB-19 37.2 µM | SNB-75 43.5 µM | SR 32.9 µM | SW-620 60.8 µM | T47D > 100 µM | TK-10 52.4 µM | U-251 23.2 µM | UACC-257 42.4 µM | UACC-62 33.6 µM | UO-31 > 100 µM
> 100 µM: HCT-15

COc1ccc(-c2cc(=O)c3c(O)cc(C)cc3o2)cc1OC
> 100 µM: HCT-15
inactive: 786-0 > 100 µM | A549 > 100 µM | ACHN > 100 µM | BT-549 > 100 µM | CCRF-CEM > 100 µM | COLO 205 > 100 µM | DU-145 > 100 µM | EKVX > 100 µM | HCC 2998 79.6 µM | HCT-116 > 100 µM | HL-60 > 100 µM | HOP-62 > 100 µM | HOP-92 22.8 µM | HT-29 > 100 µM | Hs-578T > 100 µM | IGROV-1 > 100 µM | K562 > 100 µM | KM12 > 100 µM | LOX IMVI > 100 µM | M14 > 100 µM | MCF7 > 100 µM | MDA-MB-231 > 100 µM | MDA-MB-435 > 100 µM | MDA-N > 100 µM | MOLT-4 > 100 µM | Malme-3M > 100 µM | NCI-H226 > 100 µM | NCI-H23 > 100 µM | NCI-H460 > 100 µM | NCI-H522 > 100 µM | NCI/ADR-RES > 100 µM | OVCAR-3 > 100 µM | OVCAR-4 > 100 µM | OVCAR-5 > 100 µM | PC-3 > 100 µM | RPMI-8226 > 100 µM | RXF 393 > 100 µM | SF-268 > 100 µM | SF-295 > 100 µM | SF-539 > 100 µM | SK-MEL-28 > 100 µM | SK-MEL-2 > 100 µM | SK-MEL-5 > 100 µM | SK-OV-3 > 100 µM | SN12C > 100 µM | SNB-19 > 100 µM | SNB-75 67.1 µM | SR > 100 µM | SW-620 > 100 µM | T47D > 100 µM | TK-10 > 100 µM | U-251 > 100 µM | UACC-257 > 100 µM | UACC-62 > 100 µM | UO-31 > 100 µM
